In patent US20220071989A1, “METHODS OF TREATING NEGATIVE SYMPTOMS OF SCHIZOPHRENIA USING DEUTERATED DEXTROMETHORPHAN AND QUINIDINE” (AVANIR PHARMACEUTICALS, INC., priority 2019, published 2022):
Counter-ions that a name gives are not always drawn.

What was measured:
[1] = Plasma concentrations of d6-DM, d3-DX, d3-3-MM and Q (Example 1); conditions: 2 to 3 hours after morning dose
Protocol: Plasma samples were separated by centrifugation and then frozen at −20° C. until assayed at the analytical unit.

[2] = PK parameters (Cmax, AUC) estimated from measured drug concentrations with a PK model (Example 1); assay type: in vivo, human
[3] = tested on: negative symptoms of schizophrenia; conditions: Lee et al. 2015, cited from earlier work
[4] = d6-DM/Q/d6-DM/Q group at Visit 4 (Week 6)
[5] = d6-DM/Q/d6-DM/Q group at Visit 7 (Week 12)
[6] = placebo/d6-DM/Q group at Visit 7 (Week 12)
[7] = Visit 4 (Week 6), d6-DM/Q/d6-DM/Q, All metabolizer types
[8] = Visit 4 (Week 6), d6-DM/Q/d6-DM/Q, Extensive metabolizer subgroup
[9] = Visit 4 (Week 6), d6-DM/Q/d6-DM/Q, Intermediate metabolizer subgroup
[10] = Visit 4 (Week 6), d6-DM/Q/d6-DM/Q, Poor metabolizer subgroup
[11] = Visit 4 (Week 6), d6-DM/Q/d6-DM/Q, Ultra-Rapid metabolizer subgroup
[12] = Visit 7 (Week 12), d6-DM/Q/d6-DM/Q, All metabolizer types
[13] = Visit 7 (Week 12), d6-DM/Q/d6-DM/Q, Extensive metabolizer subgroup
[14] = Visit 7 (Week 12), d6-DM/Q/d6-DM/Q, Intermediate metabolizer subgroup
[15] = Visit 7 (Week 12), d6-DM/Q/d6-DM/Q, Ultra-Rapid metabolizer subgroup
[16] = Visit 7 (Week 12), placebo/d6-DM/Q, All metabolizer types
[17] = Visit 7 (Week 12), placebo/d6-DM/Q, Extensive metabolizer subgroup
[18] = Visit 7 (Week 12), placebo/d6-DM/Q, Intermediate metabolizer subgroup
[19] = Visit 7 (Week 12), placebo/d6-DM/Q, Poor metabolizer subgroup
[20] = subgroup of 13 patients with ALDH2*2 allele

## [2H]C([2H])([2H])Oc1ccc2c(c1)C13CCCCC1C(C2)NCC3 (centres unmarked) [d3-3-MM]
[1]; [4]
  mean plasma concentration, all patients: 20.5 ng/mL
[1]; [5]
  mean plasma concentration, all patients: 19.4 ng/mL
[1]; [6]
  mean plasma concentration, all patients: 23.4 ng/mL

## [2H]C([2H])([2H])N1CCC23CCCCC2C1Cc1ccc(O)cc13 (centres unmarked) [d3-DX, deuterated (d3)-dextrorphan]
[1]; [4]
  mean plasma concentration, all patients: 101.2 ng/mL
[1]; [5]
  mean plasma concentration, all patients: 111.6 ng/mL
[1]; [6]
  mean plasma concentration, all patients: 124.5 ng/mL
[2]; [7]
  AUC, mean (SD): 1142.3 (378.08) h × ng/mL
  AUC, median (min, max): 1083.8 (506, 2091) h × ng/mL
  Cmax, mean (SD): 127.4 (50.25) ng/mL
  Cmax, median (min, max): 121.6 (56, 332) ng/mL
[2]; [8]
  AUC, mean (SD): 1235.3 (389.01) h × ng/mL
  AUC, median (min, max): 1119.6 (729, 2091) h × ng/mL
  Cmax, mean (SD): 144.6 (56.42) ng/mL
  Cmax, median (min, max): 134.9 (72, 332) ng/mL
[2]; [9]
  AUC, mean (SD): 1044.8 (340.96) h × ng/mL
  AUC, median (min, max): 991.6 (506, 1847) h × ng/mL
  Cmax, mean (SD): 111.5 (38.83) ng/mL
  Cmax, median (min, max): 101.2 (56, 195) ng/mL
[2]; [10]
  AUC, mean (SD): 887.2 (na) h × ng/mL
  AUC, median (min, max): 887.2 (887, 887) h × ng/mL
  Cmax, mean (SD): 87.2 (na) ng/mL
  Cmax, median (min, max): 87.2 (87, 87) ng/mL
[2]; [11]
  AUC, mean (SD): 1774.7 (na) h × ng/mL
  AUC, median (min, max): 1774.7 (1775, 1775) h × ng/mL
  Cmax, mean (SD): 193.1 (na) ng/mL
  Cmax, median (min, max): 193.1 (193, 193) ng/mL
[2]; [12]
  AUC, mean (SD): 1142.8 (378.46) h × ng/mL
  AUC, median (min, max): 1087.1 (511, 2115) h × ng/mL
  Cmax, mean (SD): 126.8 (50.32) ng/mL
  Cmax, median (min, max): 123.0 (57, 337) ng/mL
[2]; [13]
  AUC, mean (SD): 1243.6 (394.70) h × ng/mL
  AUC, median (min, max): 1123.4 (740, 2115) h × ng/mL
  Cmax, mean (SD): 144.9 (56.98) ng/mL
  Cmax, median (min, max): 133.9 (76, 337) ng/mL
[2]; [14]
  AUC, mean (SD): 1015.0 (312.22) h × ng/mL
  AUC, median (min, max): 1000.2 (511, 1833) h × ng/mL
  Cmax, mean (SD): 106.3 (33.76) ng/mL
  Cmax, median (min, max): 100.6 (57, 187) ng/mL
[2]; [15]
  AUC, mean (SD): 1783.3 (na) h × ng/mL
  AUC, median (min, max): 1783.3 (1783, 1783) h × ng/mL
  Cmax, mean (SD): 190.3 (na) ng/mL
  Cmax, median (min, max): 190.3 (190, 190) ng/mL
[2]; [16]
  AUC, mean (SD): 1181.4 (515.68) h × ng/mL
  AUC, median (min, max): 1085.8 (651, 3622) h × ng/mL
  Cmax, mean (SD): 126.6 (49.10) ng/mL
  Cmax, median (min, max): 116.4 (65, 318) ng/mL
[2]; [17]
  AUC, mean (SD): 1323.8 (623.07) h × ng/mL
  AUC, median (min, max): 1131.7 (750, 3622) h × ng/mL
  Cmax, mean (SD): 142.5 (56.08) ng/mL
  Cmax, median (min, max): 130.9 (80, 318) ng/mL
[2]; [18]
  AUC, mean (SD): 1014.1 (202.39) h × ng/mL
  AUC, median (min, max): 940.4 (745, 1367) h × ng/mL
  Cmax, mean (SD): 108.0 (24.89) ng/mL
  Cmax, median (min, max): 105.2 (76, 168) ng/mL
[2]; [19]
  AUC, mean (SD): 651.2 (na) h × ng/mL
  AUC, median (min, max): 651.2 (651, 651) h × ng/mL
  Cmax, mean (SD): 65.1 (na) ng/mL
  Cmax, median (min, max): 65.1 (65, 65) ng/mL

## [2H]C([2H])([2H])Oc1ccc2c(c1)[C@]13CCCC[C@@H]1[C@H](C2)N(C([2H])([2H])[2H])CC3 [d6-DM, deuterated [d6]-dextromethorphan hydrobromide]
[1]; [4]
  mean plasma concentration, all patients: 49.7 ng/mL
[1]; [5]
  mean plasma concentration, all patients: 53.2 ng/mL
[1]; [6]
  mean plasma concentration, all patients: 54.0 ng/mL
[2]; [7]
  AUC, mean (SD): 456.2 (362.05) h × ng/mL
  AUC, median (min, max): 355.4 (73, 1793) h × ng/mL
  Cmax, mean (SD): 51.6 (38.53) ng/mL
  Cmax, median (min, max): 40.0 (8, 192) ng/mL
[2]; [8]
  AUC, mean (SD): 333.3 (255.24) h × ng/mL
  AUC, median (min, max): 271.9 (73, 1183) h × ng/mL
  Cmax, mean (SD): 38.2 (27.99) ng/mL
  Cmax, median (min, max): 32.2 (8, 130) ng/mL
[2]; [9]
  AUC, mean (SD): 573.2 (418.66) h × ng/mL
  AUC, median (min, max): 401.7 (139, 1793) h × ng/mL
  Cmax, mean (SD): 63.9 (44.15) ng/mL
  Cmax, median (min, max): 48.1 (17, 192) ng/mL
[2]; [10]
  AUC, mean (SD): 204.6 (na) h × ng/mL
  AUC, median (min, max): 204.6 (205, 205) h × ng/mL
  Cmax, mean (SD): 28.7 (na) ng/mL
  Cmax, median (min, max): 28.7 (29, 29) ng/mL
[2]; [11]
  AUC, mean (SD): 468.0 (na) h × ng/mL
  AUC, median (min, max): 468.0 (468, 468) h × ng/mL
  Cmax, mean (SD): 58.6 (na) ng/mL
  Cmax, median (min, max): 58.6 (59, 59) ng/mL
[2]; [12]
  AUC, mean (SD): 473.4 (375.01) h × ng/mL
  AUC, median (min, max): 369.4 (70, 1810) h × ng/mL
  Cmax, mean (SD): 53.4 (40.09) ng/mL
  Cmax, median (min, max): 42.3 (8, 194) ng/mL
[2]; [13]
  AUC, mean (SD): 336.7 (244.01) h × ng/mL
  AUC, median (min, max): 288.9 (70, 1127) h × ng/mL
  Cmax, mean (SD): 38.7 (26.74) ng/mL
  Cmax, median (min, max): 34.1 (8, 124) ng/mL
[2]; [14]
  AUC, mean (SD): 601.9 (442.90) h × ng/mL
  AUC, median (min, max): 375.7 (132, 1810) h × ng/mL
  Cmax, mean (SD): 67.0 (46.98) ng/mL
  Cmax, median (min, max): 45.9 (16, 194) ng/mL
[2]; [15]
  AUC, mean (SD): 498.8 (na) h × ng/mL
  AUC, median (min, max): 498.8 (499, 499) h × ng/mL
  Cmax, mean (SD): 62.1 (na) ng/mL
  Cmax, median (min, max): 62.1 (62, 62) ng/mL
[2]; [16]
  AUC, mean (SD): 439.6 (248.41) h × ng/mL
  AUC, median (min, max): 413.0 (53, 1081) h × ng/mL
  Cmax, mean (SD): 50.8 (27.44) ng/mL
  Cmax, median (min, max): 47.7 (7, 121) ng/mL
[2]; [17]
  AUC, mean (SD): 404.3 (239.02) h × ng/mL
  AUC, median (min, max): 368.0 (53, 1081) h × ng/mL
  Cmax, mean (SD): 47.2 (26.57) ng/mL
  Cmax, median (min, max): 44.2 (7, 121) ng/mL
[2]; [18]
  AUC, mean (SD): 492.1 (271.83) h × ng/mL
  AUC, median (min, max): 492.9 (124, 945) h × ng/mL
  Cmax, mean (SD): 56.2 (29.94) ng/mL
  Cmax, median (min, max): 56.1 (15, 106) ng/mL
[2]; [19]
  AUC, mean (SD): 427.4 (na) h × ng/mL
  AUC, median (min, max): 427.4 (427, 427) h × ng/mL
  Cmax, mean (SD): 47.9 (na) ng/mL
  Cmax, median (min, max): 47.9 (48, 48) ng/mL

## COc1ccc2c(c1)[C@@]13CCCC[C@H]1[C@@H](C2)N(C)CC3 [dextromethorphan, (+)-3-methoxy-N-methylmorphinan]
[3]; add-on to risperidone
  PANSS and SANS scores, risperidone and dextromethorphan vs. risperidone and placebo (in words): No significant differences
[3]; [20]
  PANSS scores including PANSS negative symptom subscale, dextromethorphan vs. placebo (in words): No significant difference
  total SANS scores, dextromethorphan vs. placebo (in words): significant difference
